Columns and labels:
Sphaerotheca fuliginea = test: In vivo preventive test on Sphaerotheca fuliginea (powdery mildew on cucurbits), Examples F and R6; conditions: Podosphaera fuliginea, 360 h; 500 ppm of active ingredient; gherkin, preventive spray, evaluated 15 days after inoculation; read-out: efficacy
Alternaria brassicae = test: In vivo preventive test on Alternaria brassicae (leaf spot on radish), Examples A and R1; conditions: Alternaria brassicae, 144 h, 500 ppm of active ingredient, preventive spray, evaluated 6 days after inoculation, read-out: efficacy
[1] = test system: Blumeria graminis fsp. hordei; test: In vivo preventive Blumeria test (barley), Example K; conditions: 168 h, 500 ppm of active ingredient, preventive spray, evaluated 7 days after inoculation, read-out: efficacy
Excerpt: After the spray coating has been dried, the plants are dusted with spores of Blumeria graminis fsp. hordei.

Pyrenophora teres = test: In vivo preventive test on Pyrenophora teres (net blotch on barley), Examples D, Q2 and R4; conditions: Pyrenophora teres, 336 h, 500 ppm of active ingredient, preventive spray, evaluated 14 days after inoculation, read-out: efficacy
Puccinia recondita = test: In vivo preventive test on Puccinia recondita (brown rust on wheat), Examples C and R3; conditions: Puccinia recondita, 264 h; 500 ppm of active ingredient; wheat, preventive spray, evaluated 11 days after inoculation; read-out: efficacy
Uromyces appendiculatus = test: In vivo preventive test on Uromyces appendiculatus (bean rust), Examples G and R7; conditions: 264 h, 500 ppm of active ingredient, bean, preventive spray, evaluated 11 days after inoculation, read-out: efficacy
[2] = Measurement of LogP values by HPLC on reversed phase columns (EEC directive 79/831 Annex V.A8); format: physicochemical; conditions: method [a]: LC-UV, acidic range, 0.1% formic acid in water and acetonitrile as eluent; Table 1
Protocol: Measurement of Log P values was performed as outlined above.

Septoria tritici = test: In vivo preventive test on Septoria tritici (leaf spot on wheat), Examples E, Q3 and R5; conditions: Zymoseptoria tritici, 576 h, 500 ppm of active ingredient; wheat, preventive spray, evaluated 24 days after inoculation; read-out: efficacy
[3] = test system: Fusarium nivale (var. majus); test: In vivo preventive Fusarium nivale (var. majus) test (wheat), Example O; conditions: Microdochium nivale, 120 h, 500 ppm of active ingredient, preventive spray, evaluated 5 days after inoculation, read-out: efficacy
Excerpt: After the spray coating has been dried, the plants are slightly injured by using a sandblast and afterwards they are sprayed with a conidia suspension of Fusarium nivale (var. majus).

Pyricularia oryzae = test: whole plant or invertebrate; format: in vivo; conditions: 192 h, read-out: efficacy
Leptosphaeria nodorum = test: In vivo preventive Leptosphaeria nodorum test (wheat), Example N; conditions: Parastagonospora nodorum, 192 h, 500 ppm of active ingredient, preventive spray, evaluated 8 days after inoculation, read-out: efficacy
Excerpt: After the spray coating has been dried, the plants are sprayed with a spore suspension of Leptosphaeria nodorum.

Venturia inaequalis = test: In vivo preventive Venturia test (apples), Example J; conditions: 240 h, read-out: efficacy
Protocol: After the spray coating has dried on, the plants are inoculated with an aqueous conidia suspension of the causal agent of apple scab (Venturia inaequalis) and then remain for 1 day in an incubation cabinet at approximately 20° C. and a relative atmospheric humidity of 100%.
The plants are then placed in a greenhouse at approximately 21° C. and a relative atmospheric humidity of approximately 90%.
The test is evaluated 10 days after the inoculation.

Botrytis cinerea = test: In vivo preventive test on Botrytis cinerea (grey mould) on gherkin, Examples B, Q1 and R2; conditions: Botrytis cinerea, 500 ppm of active ingredient, preventive spray, evaluated 4 to 5 days after inoculation, read-out: efficacy
Phakopsora pachyrhizi = test: In vivo preventive Phakopsora test (soybeans), Example I; conditions: 168 h, 100 ppm of active ingredient, preventive spray, evaluated 7 days after inoculation, read-out: efficacy
Alternaria solani = test: In vivo preventive Alternaria test (tomatoes), Example H; conditions: 72 h, 100 ppm of active ingredient, preventive spray, evaluated 3 days after inoculation, read-out: efficacy
Fusarium graminearum = test: whole plant or invertebrate; format: in vivo; conditions: in Hordeum vulgare, 120 h, read-out: efficacy

Row | Structure (SMILES) | pest or weed control at 500 ppm (Sphaerotheca fuliginea) [%] | pest or weed control at 500 ppm (Alternaria brassicae) [%] | pest or weed control at 500 ppm [1] [%] | pest or weed control at 500 ppm (Pyrenophora teres) [%] | pest or weed control at 500 ppm (Puccinia recondita) [%] | pest or weed control at 500 ppm (Uromyces appendiculatus) [%] | chromatographic logP [2] | pest or weed control at 500 ppm (Septoria tritici) [%] | pest or weed control at 500 ppm [3] [%] | pest or weed control at 500 ppm (Pyricularia oryzae) [%] | pest or weed control at 500 ppm (Leptosphaeria nodorum) [%] | pest or weed control at 100 ppm (Venturia inaequalis) [%] | pest or weed control at 500 ppm (Botrytis cinerea) [%] | pest or weed control at 100 ppm (Phakopsora pachyrhizi) [%] | pest or weed control at 100 ppm (Alternaria solani) [%] | pest or weed control at 500 ppm (Fusarium graminearum) [%]
1 | COC(=O)c1cncn1CC(O)(Cc1ccccc1Cl)C1(Cl)CC1 (centres unmarked) [Example I-01] | 90 to 100 | 80 to 89 | 90 to 100 | 90 to 100 | 90 to 100 | 90 to 100 | 2.82 | 90 to 100 | 70 to 79 |  |  |  |  |  |  | 
2 | OC(Cc1c(Cl)ccnc1Cl)(Cn1cncc1Cl)C1(Cl)CC1 (centres unmarked) [Example I-11] | 90 to 100 |  |  | 80 to 89 | 80 to 89 | 90 to 100 | 2.02 | 90 to 100 | 80 to 89 | 80 to 89 | 80 to 89 |  |  |  |  | 
3 | OC(Cc1ccccc1F)(Cn1cncc1Br)C1(Cl)CC1 (centres unmarked) [Example I-33] | 90 to 100 | 90 to 100 | 90 to 100 | 80 to 89 | 80 to 89 | 90 to 100 | 2.1 | 90 to 100 |  |  | 90 to 100 | 90 to 100 | 90 to 100 | 90 to 100 | 90 to 100 | 
4 | N#Cc1cncn1CC(O)(Cc1ccc(Br)cc1Cl)C1(Cl)CC1 (centres unmarked) [Example I-41] | 90 to 100 |  | 90 to 100 |  | 90 to 100 | 90 to 100 | 3.52 | 90 to 100 | 80 to 89 |  | 70 to 79 |  |  |  |  | 90 to 100
5 | OC(Cc1ccc(Br)cc1F)(Cn1cncc1Cl)C1(Cl)CC1 (centres unmarked) [Example I-44] | 90 to 100 |  | 90 to 100 | 90 to 100 | 80 to 89 | 90 to 100 | 2.64 | 90 to 100 |  | 70 to 79 | 80 to 89 | 90 to 100 | 90 to 100 | 90 to 100 | 90 to 100 | 70 to 79
6 | N#Cc1cncn1CC(O)(Cc1cccc(Cl)c1Cl)C1(Cl)CC1 (centres unmarked) [Example I-49] | 90 to 100 |  | 90 to 100 | 90 to 100 | 90 to 100 | 90 to 100 | 3.25 | 90 to 100 | 80 to 89 | 80 to 89 | 80 to 89 |  |  |  |  | 70 to 79
7 | N#Cc1cncn1CC(O)(Cc1ccnc(Cl)c1Cl)C1(Cl)CC1 (centres unmarked) [Example I-50] | 90 to 100 |  | 90 to 100 | 80 to 89 | 80 to 89 | 90 to 100 | 2.47 | 90 to 100 | 90 to 100 | 70 to 79 |  | 80 to 89 |  | 80 to 89 | 70 to 79 | 
8 | OC(Cc1ccncc1Cl)(Cn1cncc1Cl)C1(Cl)CC1 (centres unmarked) [Example I-72] | 90 to 100 |  | 90 to 100 | 80 to 89 | 80 to 89 | 90 to 100 | 1.52 | 90 to 100 | 90 to 100 | 90 to 100 | 90 to 100 |  | 70 to 79 |  |  | 70 to 79
9 | N#Cc1cncn1CC(O)(Cc1ccccc1C(F)(F)F)C1(Cl)CC1 (centres unmarked) [Example I-88] | 90 to 100 |  | 90 to 100 | 90 to 100 | 90 to 100 | 90 to 100 | 3.15 | 90 to 100 | 80 to 89 |  |  |  |  |  |  | 90 to 100
10 | N#Cc1cncn1CC(O)(Cc1ccccc1Cl)C1(F)CC1 (centres unmarked) [Example I-98] | 90 to 100 |  | 90 to 100 | 90 to 100 | 90 to 100 | 90 to 100 | 2.53 | 90 to 100 |  | 90 to 100 |  | 90 to 100 | 70 to 79 | 90 to 100 | 90 to 100 | 90 to 100
11 | N#Cc1cncn1CC(O)(Cc1ccc(F)c(F)c1F)C1(Cl)CC1 (centres unmarked) [Example I-103] | 90 to 100 |  | 90 to 100 | 80 to 89 | 90 to 100 | 90 to 100 | 2.92 | 90 to 100 |  |  |  | 80 to 89 |  | 90 to 100 | 80 to 89 | 90 to 100
12 | N#Cc1cncn1CC(O)(Cc1ccc(F)c(F)c1)C1(Cl)CC1 (centres unmarked) [Example I-109] | 90 to 100 |  | 90 to 100 | 90 to 100 | 90 to 100 | 90 to 100 | 2.78 | 90 to 100 | 80 to 89 |  |  |  |  |  |  | 90 to 100
13 | CC(C)(C)C(O)(Cc1ccccc1F)Cn1cncc1C#N (centres unmarked) [Example I-138] | 90 to 100 |  | 90 to 100 |  | 90 to 100 | 90 to 100 | 2.73 | 90 to 100 |  | 80 to 89 |  | 70 to 79 | 80 to 89 | 90 to 100 |  | 90 to 100
14 | N#Cc1cncn1CC(O)(Cc1ccnc(Cl)c1F)C1(Cl)CC1 (centres unmarked) [Example I-152] | 90 to 100 |  | 90 to 100 | 70 to 79 | 90 to 100 | 90 to 100 | 2.25 | 90 to 100 | 90 to 100 |  | 70 to 79 |  |  |  |  | 70 to 79
15 | N#Cc1cncn1CC(O)(Cc1ccc(F)cc1Cl)C1(Cl)CC1 (centres unmarked) [Example I-154] | 90 to 100 |  | 90 to 100 |  | 90 to 100 | 90 to 100 | 3 | 90 to 100 | 90 to 100 | 70 to 79 | 90 to 100 |  | 80 to 89 |  |  | 90 to 100
16 | OC(Cc1ccncc1F)(Cn1cncc1Cl)C1(Cl)CC1 (centres unmarked) [Example I-164] | 90 to 100 |  | 90 to 100 | 80 to 89 | 80 to 89 | 90 to 100 | 1.46 | 90 to 100 | 80 to 89 | 70 to 79 |  |  | 90 to 100 |  |  | 
